Data taken from PubChem BioAssay AID179 (DTP/NCI, 2004).
Active and inactive are the calls of the source.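 How the source made its calls: active means compounds giving half or more protection of infected cells from virus-caused growth loss, again on retest; inactive means the rest.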 *1 amine or outer side, *2 acyl side, *3 side chain or, on linkers, in order; H or OH if unused. Where a SMILES comes first, the peptide text is derived from it. [ ]: non-standard residue; d: D form. The star is where a group is joined. X1 = O=C(C1=CN(Cc2ccccc2)C=CC1N[*:1])[*:2]; Cbz = O=C(OCc1ccccc1)*; OBn = c1ccc(CO*)cc1

System: CEM cells HIV-1 protection, formazan growth assay
Experiment: NCI AIDS Antiviral Assay
Conditions: for IC50: measured here: growth of uninfected CEM cells
Outline: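 Protection of CEM cells against HIV-1 measured as cell growth via soluble formazan read-out, with five concentrations tested on both infected and uninfected cells; failure to protect may reflect toxicity.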

Nc1ccc2nc(-c3ccccn3)c(-c3ccccn3)nc2c1
EC50: 123 µM
IC50: > 200 µM

CSc1n[nH]c(NC(=O)c2cccc(C(F)(F)F)c2)n1
EC50: > 44.7 µM
IC50: > 44.7 µM

CSc1ncc2c(C#N)c3ccccn3c(=O)c2n1
EC50: > 200 µM
IC50: > 200 µM

CCc1c(Cc2ccccc2)n(COCC[Se]c2ccccc2)c(=O)[nH]c1=O
EC50: 4.27 µM
IC50: 28.8 µM

C=CCC1(Sc2ccccn2)Sc2ccc3ccccc3c2-c2c(ccc3ccccc23)S1
EC50: > 100 µM
IC50: > 100 µM

COC(=O)CCC1=CCC2(SC)C(=O)Nc3cccc1c32 (stereo not drawn)
EC50: > 200 µM
IC50: > 200 µM

Cc1nc(Nc2ccccc2)sc1C(=O)NNC(N)=O
EC50: > 151 µM
IC50: 63.1 µM

NC1=NC2OC(CO)C(O)C2O1 (stereo not drawn)
EC50: > 200 µM
IC50: > 200 µM

CN(C)Cc1cc(N=Nc2c(Cl)cccc2Cl)ccc1O
EC50: > 200 µM
IC50: 83.2 µM

COc1cc(-c2ccc(N=Nc3cc4cc(S(=O)(=O)O)ccc4cc3O)c(OC)c2)ccc1N=Nc1cc2cc(S(=O)(=O)O)ccc2cc1O
EC50: 17.4 µM
IC50: 120 µM

CC1(C)CC2(C)CC1CC2O (stereo not drawn)
EC50: > 200 µM
IC50: > 200 µM

COC(=O)CNC(=O)C(C)NC(=O)C(CC(=O)OCc1ccccc1)NC(=O)OCc1ccccc1 (stereo not drawn) (Cbz-Asp(OBn)-Ala-Gly-OMe; configuration not given here)
EC50: > 200 µM
IC50: 107 µM

CC(=O)Nc1ccc2nc(-c3ccccn3)c(-c3ccccn3)nc2c1
EC50: 27.5 µM
IC50: > 200 µM

CCCCN(Cc1ccccc1)C(=NC#N)N(Cc1ccccc1)Cc1ccccc1
EC50: > 4.9 µM
IC50: > 4.9 µM

COc1ccccc1/C=C/c1nc2ccccc2o1
EC50: > 200 µM
IC50: 107 µM

COc1cc2c(-c3onc4ccc(OCc5ccccc5)cc34)nccc2c(OC)c1OC
outcome: inactive

Cc1[nH]n(C(=O)c2ccc(Cl)cc2)c(=O)c1/C=C1\C(O)=CC(=O)c2ccccc21
EC50: > 12.9 µM
IC50: > 12.9 µM

CCOC(=O)C1SC(=Nc2ccc(Cl)cc2)N=C1C (stereo not drawn)
EC50: > 87.1 µM
IC50: > 87.1 µM

O=C(O)c1cc(N=Nc2ccc(/C=C/c3ccc(N=Nc4ccc(O)c(C(=O)O)c4)cc3S(=O)(=O)O)c(S(=O)(=O)O)c2)ccc1O
EC50: 22.4 µM
IC50: 36.3 µM

CN1CN(c2ccccc2)C2(CCN(CCCN(C)c3ccc(F)cc3)CC2)C1=O
EC50: > 200 µM
IC50: 35.5 µM

Cc1nc(N)nc(CCC(=O)Nc2cccc(C(F)(F)F)c2)c1-c1ccc(Cl)cc1
EC50: > 302 µM
IC50: > 302 µM

CC1OC(OC2C(O[C@H]3CC[C@@]4(C)C(=CC[C@H]5[C@@H]6C[C@@H]7O[C@]8(CC[C@H](C)CN8)[C@@H](C)[C@@H]7[C@@]6(C)CC[C@@H]54)C3)OC(CO)C(O)C2OC2OC(CO)C(O)C(O)C2O)C(O)C(O)C1O (stereo partly drawn)
outcome: inactive

CC(=O)C1=C(C)NC2C=CC=CN12 (stereo not drawn)
EC50: > 1410 µM
IC50: 676 µM

CCCc1c(C(=O)OCC)[nH]c(-c2ccc(-c3[nH]c(C(=O)OCC)c(CCC)c3C(=O)OCC)s2)c1C(=O)OCC
EC50: > 4.68 µM
IC50: > 4.68 µM

NCCCCN(CCCN)/[N+]([O-])=N\O
EC50: > 7590 µM
IC50: 91.2 µM

COC(=O)/C=C(/C(=O)OC)C1(C)c2cc(C(=O)OC)c(C(=O)OC)c(N)c2C(=N)N1c1ccccc1 (stereo not drawn)
outcome: inactive

CC1=C(/C=C/C(C)=C/C=C/C(C)=C/C=C/C=C(C)/C=C/C=C(C)/C=C/C=C(C)/C=C/C=C(\C)C(=O)O)C(C)(C)CCC1
EC50: > 4.79 µM
IC50: > 4.79 µM

N#CC[P+](c1ccccc1)(c1ccccc1)c1ccccc1
EC50: > 200 µM
IC50: 141 µM

O=S(=O)(O)SCCCNCCCNCCCSS(=O)(=O)O
EC50: > 200 µM
IC50: 13.8 µM

C=[N+](CNC(=O)CNC(=O)C(Cc1ccc([N+](=O)[O-])cc1)NC(=O)OC(C)(C)C)C(=O)CNC(=O)C(Cc1ccc([N+](=O)[O-])cc1)NC(=O)OC(C)(C)C (stereo not drawn)
EC50: > 200 µM
IC50: 89.1 µM

CCOC(=O)Cc1c(Cc2[nH]c(C(=O)OCc3ccccc3)c(CC(=O)OCC)c2CC(=O)OCC)[nH]c(C(=O)OCc2ccccc2)c1CC(=O)OCC
EC50: > 5.01 µM
IC50: > 5.01 µM

COc1cc(/C=C2\CCC(C)/C(=C\c3cc(OC)c(OC)c(OC)c3)C2=O)cc(OC)c1OC (stereo not drawn)
EC50: > 200 µM
IC50: 7.24 µM

Cc1nn(-c2ccccc2)c2nc(N3CCOCC3)nnc12
outcome: inactive

C[C@H]1CCC2C(OC(=O)[C@@H]2CN(C)C)[C@]2(C)C(=O)C=CC12O (stereo partly drawn)
outcome: inactive

O=C(/C=C/c1ccccc1O)C(c1ccccc1)c1ccccc1
EC50: > 12 µM
IC50: > 12 µM

CCOC(=O)C1=C(C)NC2=C(C(=O)CC(C)(C)C2)C1CCSC (stereo not drawn)
EC50: > 200 µM
IC50: > 200 µM

C[n+]1c2ccccc2c(/C=N\NS(=O)(=O)c2ccc(Cl)cc2)c2ccccc21
outcome: inactive

CC(=O)OC(C#N)CC(C)(C)/[N+]([O-])=[N+](\[O-])C(C)(C)CC(C#N)OC(C)=O (stereo not drawn)
EC50: > 20 µM
IC50: 3.63 µM

O=c1[nH]c2ccccc2c(O)c1N=Nc1ccc(N=Nc2ccc(S(=O)(=O)O)cc2)cc1
EC50: > 200 µM
IC50: > 200 µM

CCN(CC)Cc1ccccc1CC(=O)N1c2ccccc2C(=O)Nc2cccnc21
EC50: > 200 µM
IC50: > 200 µM

COC(=O)[C@H]1N[C@@H](C(=O)OC)C23CCC[C@H]2CC[C@]1(C(OC)OC)C3
EC50: > 708 µM
IC50: 389 µM

CC(C)OP(=O)(OC(C)C)C([CH2][Sn]([CH3])([CH3])[Br])P(=O)(OC(C)C)OC(C)C
EC50: > 200 µM
IC50: 8.71 µM

c1cc2nnc1SCCCSc1ccc(nn1)SCCCSc1ccc(nn1)SCCCS2
EC50: > 100 µM
IC50: > 100 µM

CCC1(COC(NC(=O)c2ccccc2)(C(F)(F)F)C(F)(F)F)COC1
EC50: > 200 µM
IC50: 115 µM

c1ccc2nc([Se][Se]c3ccc4ccccc4n3)ccc2c1
EC50: > 9.12 µM
IC50: 4.17 µM

CCSC(=O)n1ncc2cc(Cl)ccc21
EC50: > 200 µM
IC50: 30.2 µM

CC(=O)c1ccc(NC(=O)/C(Cc2ccccn2)=N/NC(=O)C[N+](C)(C)C)cc1
outcome: inactive

O=C(O)c1ccccc1-c1c2ccc(=O)c(O)c-2oc2c(O)c(O)ccc12
EC50: > 25.1 µM
IC50: 8.71 µM

O=[N+]([O-])c1ccc(N=Cc2ccc(O)cc2)cc1
EC50: > 200 µM
IC50: 10 µM

COc1ccc2oc3cc(O)cc(OC)c3c(=O)c2c1O
EC50: > 200 µM
IC50: 145 µM

C(=N\Nc1ccccc1)/c1nc2ccccc2nc1/C=N/Nc1ccccc1
EC50: > 5.5 µM
IC50: > 5.5 µM

CC1NC(=O)C(C(C)C)NC(=O)C2=CN(Cc3ccccc3)C=CC2NC(=O)C(C)NC(=O)C(C(C)C)NC(=O)C2=CN(Cc3ccccc3)C=CC2NC1=O (stereo not drawn) (cyclo([X1]VA[X1]VA); configuration not given here)
EC50: > 23.4 µM
IC50: > 23.4 µM

NC(=O)C(=CNc1nc(-c2ccc(Br)cc2)cs1)C(N)=O
EC50: > 200 µM
IC50: 135 µM

CCOC(=O)N(NC(=O)NC(C)C)c1ccccc1
EC50: > 200 µM
IC50: > 200 µM

CC(C)(Cc1ccccc1)NC1=NCCO1
EC50: > 200 µM
IC50: > 200 µM

CN1C(Cl)=NS(=O)(=O)c2ccccc21
EC50: > 200 µM
IC50: > 200 µM

CCCCCCCCN(CCCCCCCC)/N=C/c1c2c(O)c3c(O)c(C)c4c(c3c1O)C(=O)C(C)(O/C=C/C(OC)C(C)C(OC(C)=O)C(C)C(O)C(C)C(O)C(C)/C=C/C=C(C)C(=O)N2)O4 (stereo not drawn)
outcome: inactive

COc1ccc(/C=C2\N=C(N3CCCCC3)NC2=O)cc1
EC50: > 200 µM
IC50: > 100 µM

COC1/C=C/OC2(C)Oc3c(C)c(O)c4c(O)c(c(/C=N/NC5OC(COC(=O)c6ccccc6)C(OC(=O)c6ccccc6)C5OC(=O)c5ccccc5)c(O)c4c3C2=O)NC(=O)C(C)=C/C=C/C(C)C(O)C(C)C(O)C(C)C(OC(C)=O)C1C (stereo not drawn)
EC50: > 200 µM
IC50: 14.5 µM

CCCCNC(=O)Sc1ccccc1C(=O)N[C@H](C)C(N)=O
EC50: 1.12 µM
IC50: 112 µM

COCn1c(C)c(C)c2c(=O)oc(N(C)C)nc21
EC50: > 200 µM
IC50: 138 µM

C1=CN2CCCN3C=CC=c4ccc(c2c43)=C1
EC50: > 200 µM
IC50: 110 µM

CC(=O)Nc1ccc(S(=O)(=O)N/N=C/c2ccc(C)cc2)cc1
EC50: > 398 µM
IC50: > 398 µM

CCOP(=O)(OCC)/C(C#N)=C/c1cccc(OC)c1
EC50: > 229 µM
IC50: > 229 µM

CCCCC(C(=O)CCC(=O)Nc1ccc(Cl)cc1)C(=O)C(C)C (stereo not drawn)
EC50: > 186 µM
IC50: > 186 µM

C=C=C(CC1CCCCC1=O)S(=O)(=O)c1ccccc1 (stereo not drawn)
EC50: > 200 µM
IC50: 6.46 µM

Cc1ccc(C2SC(N)=Nc3c2c(C)nn3C(=O)c2ccc(Cl)cc2)cc1 (stereo not drawn)
outcome: inactive

Cc1c2ccccc2c(=O)n2c(-c3ccccn3)cccc12
EC50: > 200 µM
IC50: 120 µM

C=CCOCCCCC(C(C)=O)C(=O)OC (stereo not drawn)
EC50: > 251 µM
IC50: > 251 µM

CCc1cccc(C)c1NC(=O)CCc1n[nH]c(=S)o1
EC50: > 617 µM
IC50: > 617 µM

COc1ccccc1/C=C(\NC(=O)c1ccccc1)c1nc2ccc(Cl)cc2[nH]1
EC50: > 46.8 µM
IC50: > 46.8 µM

O=c1cc(NNc2ccccc2F)[nH]c(=O)[nH]1
EC50: > 200 µM
IC50: 1.78 µM

O=C(O)CCCc1ccc2c(c1)CC1(C2)Cc2cc3c(cc2C1)CCCC3
EC50: > 200 µM
IC50: 36.3 µM

CCOC(=O)C(c1ccsc1)C(C(=O)OCC)c1cccs1 (stereo not drawn)
EC50: > 200 µM
IC50: > 200 µM

COc1ccc(NC(=O)C(=O)Cc2ccc([N+](=O)[O-])c([N+](=O)[O-])c2CC(=O)C(=O)Nc2ccc(OC)cc2OC)c(OC)c1
EC50: > 407 µM
IC50: 186 µM

CN(CC(=O)O)S(=O)(=O)c1ccc2ccccc2c1
outcome: inactive

CC(=O)OC(C)(C)c1ccc2c(c1)C(=O)C[C@@H]1[C@](C)(C#N)CCC[C@]21C
EC50: > 200 µM
IC50: 126 µM

N#CCC(=O)NCCc1c[nH]c2ccccc12
EC50: > 200 µM
IC50: > 200 µM

CN1CCN2c3ccccc3CC(C#N)(C#N)C2C1 (stereo not drawn)
outcome: inactive

Cc1ccc(S(=O)(=O)N2CC(O)C=Cc3ccccc32)cc1 (stereo not drawn)
EC50: > 200 µM
IC50: 3.16 µM

O=C(O)CCc1ccc2c(c1)C(=O)CC2
EC50: > 200 µM
IC50: > 200 µM

CC1(C)C2CC(O)C1CCC2=O (stereo not drawn)
EC50: > 200 µM
IC50: > 200 µM
